Assay results published in article PMC10197068 (Bioconjugate Chemistry, 2023).
“And” between values parts separate entries of the source, which are not always exact repeats. Equal values may be shown once.

Experiments:
[1] = system: G1 (Na+) monomeric HTelo G4 DNA, AGGG(TTAGGG)3; assay: CD melting with G1 (Na+); type: binding, human; conditions: CD melting at 295 nm, 25 to 95 °C at 2 °C/min; 100 mM NaCl, 10 mM Li cacodylate, pH 7.3; [G4 unit] 6 μM, [salphen unit] 12 μM
Experimental: (§1) Next, the DNA binding properties of the monomeric and dimeric compounds were studied. […] The following notation is used: […] The CD melting experiments were conducted solely with Na^+ stabilized DNA, which forms an antiparallel topology in solution (cf., in the presence of K^+ a mixture of topologies is observed). During the assay the temperature was increased from 25 to 95 °C upon which the intensity of signals with negative ellipticity at ca. 265 nm and positive ellipticity at ca. 295 (characteristic of an antiparallel G4 structure) decreased-see Figure 4a. This indicates the expected unfolding of the G4 DNA structure as the temperature increases. The changes in intensity were subsequently used to produce the corresponding melting curves (Figure 4b) for each sequence in the absence and presence of the different compounds under study. From these curves, the ΔTm values for the different sequences and compounds were determined, and the results are summarized in Figure 4c (see Supplementary Table 1 for values). […] G-Quadruplex oligonucleotides were purchased from Eurogentec (Belgium), and CT-DNA was purchased from Sigma-Aldrich. […] Prior to use, the DNA stock solutions were annealed by heating at 95 °C for 5 min and then cooling to room temperature overnight. Experiments were carried out on a Jasco J-810 spectrophotometer using a 1 cm quartz cuvette. Temperature was controlled using a Peltier module. The signal at 295 nm was monitored as temperature was increased for 25 to 95 °C at a rate of 2 °C/min. CD melting experiments were carried out with the appropriate G4 DNA (100 mM NaCl, 10 mM Li cacodylate, pH 7.3). Sample preparation was carried out by combining stock solutions of ligand and DNA in the appropriate buffer. […] Melting temperatures were obtained by curve fitting in Graphpad Prism 8. The data was normalized and fitted to a variable slope Hill equation, and the melting temperature was defined at the temperature at which y = 0.5.

[2] = system: G2T1 (Na+) dimeric HTelo G4 DNA, AGGG(TTAGGG)7; assay: CD melting with G2T1 (Na+); type: binding, human; conditions: for ΔTm G2T1 (Na+): CD melting at 295 nm, 25 to 95 °C at 2 °C/min, 100 mM NaCl, 10 mM Li cacodylate, pH 7.3, [G4 unit] 6 μM (3 μM dimeric sequence), [salphen unit] 12 μM
Experimental: as §1

[3] = system: G2T6 (Na+) dimeric HTelo G4 DNA, AGGG(TTAGGG)3(TTA)5(TTAGGG)4; assay: CD melting with G2T6 (Na+); type: binding, human; conditions: for ΔTm G2T6 (Na+): CD melting at 295 nm, 25 to 95 °C at 2 °C/min, 100 mM NaCl, 10 mM Li cacodylate, pH 7.3, [G4 unit] 6 μM (3 μM dimeric sequence), [salphen unit] 12 μM
Experimental: as §1

[4] = system: G1 (K+) monomeric HTelo G4 DNA; assay: Emission titration with G1 (K+); type: binding, human; conditions: Table S2, unit not given, ligand 2 μM, 100 mM KCl, 10 mM Li cacodylate, pH 7.3, exc 440 nm, em 590 nm, triplicate
Experimental: (§2) Next, emission titrations were carried out with the emissive Pt^II compounds M2 and D3–8 and G4/duplex DNA to obtain association constants. Both Na^+ and K^+ stabilized monomeric and dimeric G4 DNA were investigated. Additionally, titrations were carried out with CT-DNA to evaluate the selectivity for G4 versus duplex DNA. Figure 5 summarizes the obtained results (see Figures S24–S37 and Table S2 for a full set of titration data). First discussed are the experiments conducted in Na^+ buffer, in which the G4 topology formed is antiparallel.[41] […] As discussed previously, this could potentially be caused by a “sandwiched” binding mode in which the metal-salphen complex sits between two G-quadruplex units. For dimeric metal-salphen complexes D3–8, however, there are several differences when compared to the CD melting studies. […] Upon increasing the linker length to a two-amino-acid sequence (RR and KK for compounds D4 and D5, respectively), larger Ka values were obtained with minimal change to the pattern of selectivity. […] Increasing the linker length to an eight-amino-acid sequence (RRRRRRRR) led to a similar stabilization of G2T6, while G1 stabilization increased.
(§3) G-Quadruplex oligonucleotides were purchased from Eurogentec (Belgium), and CT-DNA was purchased from Sigma-Aldrich. Stock solutions were prepared via dilution in the appropriate buffers to concentrations of 300–400 μM determined by UV–vis measurements in which increasing amounts of DNA were added to a cuvette and the absorbance at 260 nm recorded using an Agilent Cary UV 60 spectrometer. Prior to use, the DNA stock solutions were annealed by heating at 95 °C for 5 min and then cooling to room temperature overnight.
(§4) Experiments were carried out using a BMG Clariostar Microplate reader with Greiner Bio-One half-volume (100 μL/well) plates. Excitation was carried out at 440 nm and recorded from 500 to 700 nm in addition to a matrix scan at 590 nm. Titrations were carried out using G1, G2T1, and G2T6 (Na^+) G4 DNA (100 mM NaCl, 10 mM Li cacodylate, pH 7.3); G1, G2T1, and G2T6 (K^+) G4 DNA (100 mM KCl, 10 mM Li cacodylate, pH 7.3); and CT-DNA (100 mM KCl, 10 mM Li cacodylate, pH 7.3). Ligand concentration was kept constant at 2 μM, and the following DNA equivalents were tested: 0, 0.1, 0.2, 0.3, 0.4, 0.5, 0.75, 1, 1.5, 2, 3, and 5 (for CT-DNA 10× base pair equivalents were used, i.e., 1 to 50 BPE). Sample preparation was carried out by preparing stock solutions of double concentration ligand (4 μM) and DNA in the appropriate buffer, before 50 μL of each was added to the appropriate well and mixed. Experiments were conducted in triplicate and binding constants were obtained by curve fitting in Graphpad Prism 8 using eq 1.[46] [drawing 1] 1
(§5) Fluorescence response (y) was fitted against DNA concentration (x); R is the machine response, K is the association constant of ligand and DNA, L is the concentration of ligand, and n is the number of binding sites per DNA. The values of L and n were varied so that that the L was equal to the number of salphen units and n was equal to the number of G4 faces per DNA. The matrix scan results were used to plot the titration curves and 500–700 nm scan results were used to confirm that expected curve shapes and shifts were observed.

[5] = system: G2T1 (K+) dimeric HTelo G4 DNA; assay: Emission titration with G2T1 (K+); type: binding, human; conditions: Table S2, unit not given, ligand 2 μM, 100 mM KCl, 10 mM Li cacodylate, pH 7.3, exc 440 nm, em 590 nm, triplicate
Experimental: as §2, §3, §4, §5

[6] = system: G2T6 (K+) dimeric HTelo G4 DNA; assay: Emission titration with G2T6 (K+); type: binding, human; conditions: Table S2, unit not given, ligand 2 μM, 100 mM KCl, 10 mM Li cacodylate, pH 7.3, exc 440 nm, em 590 nm, triplicate
Experimental: as §2, §3, §4, §5

[7] = system: G1 (Na+) monomeric HTelo G4 DNA; assay: Emission titration with G1 (Na+); type: binding, human; conditions: Table S2, unit not given, ligand 2 μM, 100 mM NaCl, 10 mM Li cacodylate, pH 7.3, exc 440 nm, em 590 nm, triplicate
Experimental: as §2, §3, §4, §5

[8] = system: G2T1 (Na+) dimeric HTelo G4 DNA; assay: Emission titration with G2T1 (Na+); type: binding, human; conditions: Table S2, unit not given, ligand 2 μM, 100 mM NaCl, 10 mM Li cacodylate, pH 7.3, exc 440 nm, em 590 nm, triplicate
Experimental: as §2, §3, §4, §5

[9] = system: G2T6 (Na+) dimeric HTelo G4 DNA; assay: Emission titration with G2T6 (Na+); type: binding, human; conditions: Table S2, unit not given, ligand 2 μM, 100 mM NaCl, 10 mM Li cacodylate, pH 7.3, exc 440 nm, em 590 nm, triplicate
Experimental: as §2, §3, §4, §5

CT-DNA (duplex DNA) = assay: Emission titration with duplex DNA; type: binding; conditions: for Ka for duplex DNA: CT-DNA up to 50 base pair equivalents, 100 mM KCl, 10 mM Li cacodylate, pH 7.3, ligand 2 μM
Experimental: Next, emission titrations were carried out with the emissive Pt^II compounds M2 and D3–8 and G4/duplex DNA to obtain association constants. Both Na^+ and K^+ stabilized monomeric and dimeric G4 DNA were investigated. Additionally, titrations were carried out with CT-DNA to evaluate the selectivity for G4 versus duplex DNA. Figure 5 summarizes the obtained results (see Figures S24–S37 and Table S2 for a full set of titration data). First discussed are the experiments conducted in Na^+ buffer, in which the G4 topology formed is antiparallel.[41] […] As discussed previously, this could potentially be caused by a “sandwiched” binding mode in which the metal-salphen complex sits between two G-quadruplex units. For dimeric metal-salphen complexes D3–8, however, there are several differences when compared to the CD melting studies. […] Upon increasing the linker length to a two-amino-acid sequence (RR and KK for compounds D4 and D5, respectively), larger Ka values were obtained with minimal change to the pattern of selectivity. […] Increasing the linker length to an eight-amino-acid sequence (RRRRRRRR) led to a similar stabilization of G2T6, while G1 stabilization increased. […]
as §3, with “Prior to use, the DNA stock solutions were annealed by heating at 95 °C for 5 min and then cooling to room temperature overnight.” left out
Experiments were carried out using a BMG Clariostar Microplate reader with Greiner Bio-One half-volume (100 μL/well) plates. Excitation was carried out at 440 nm and recorded from 500 to 700 nm in addition to a matrix scan at 590 nm. […]
Fluorescence response (y) was fitted against DNA concentration (x); R is the machine response, K is the association constant of ligand and DNA, L is the concentration of ligand, and n is the number of binding sites per DNA. […]

Row | Molecule | ΔTm G1 (Na+) [1] | ΔTm G2T1 (Na+) [2] | ΔTm G2T6 (Na+) [3] | Association constant G1 (K+), mean [4] | Association constant G2T1 (K+), mean [5] | Association constant G2T6 (K+), mean [6] | Association constant G1 (Na+), mean [7] | Association constant G2T1 (Na+), mean [8] | Association constant G2T6 (Na+), mean [9] | Ka for duplex DNA (CT-DNA (duplex DNA)) | fold reduction in duplex DNA binding (CT-DNA (duplex DNA); compared with monomeric complex M2) [fold] | fold increase in stabilization of G2T1 ([2]; ΔTm of D7 relative to D4) [fold] | fold increase in stabilization of G2T6 ([3]; ΔTm of D7 relative to D3) [fold]
1 | C[N+](C)(C)CCOc1ccc2c(c1)[O][Pt][O]c1cc(OCC[N+](C)(C)C)ccc1C=Nc1cc(C(=O)NCc3cn(CCOCCn4cc(CNC(=O)c5ccc6c(c5)N=Cc5ccc(OCC[N+](C)(C)C)cc5[O][Pt][O]c5cc(OCC[N+](C)(C)C)ccc5C=N6)nn4)nn3)ccc1N=C2 [Compound D3] | 3.02 °C and 3.0 °C | 15.29 °C | 6.43 °C and 6.4 °C | 0.17 | 0.13 | 0.16 | 0.17 | 0.24 | 0.19 | 5.0 × 10^3 M^–1 | 10 |  | 
2 | C[N+](C)(C)CCOc1ccc2c(c1)[O][Ni][O]c1cc(OCC[N+](C)(C)C)ccc1C=Nc1ccccc1N=C2 [Compound M1, reference compound] | 12.26 °C | 16.58 °C and 16 °C | 18.77 °C |  |  |  |  |  |  |  |  |  | 
3 | C[N+](C)(C)CCOc1ccc2c(c1)[O][Pt][O]c1cc(OCC[N+](C)(C)C)ccc1C=Nc1ccccc1N=C2 [Compound M2, reference compound] | 12.72 °C | 21.67 °C and 21 °C | 19.55 °C and 19 °C | 2.00 | 0.80 | 1.44 | 1.70 | 1.70 | 2.93 | 7.31 × 10^4 M^–1 |  |  | 
4 | RKKR [Compound D7] | 2.6 °C | 16.33 °C and 16.3 °C | 13.81 °C and 13.8 °C | 0.39 | 0.18 | 0.42 | 0.21 | 0.36 | 0.69 |  |  | 1.1 | 2.1
5 | RRRR [Compound D6] | 3.49 °C | 14.83 °C | 13.27 °C | 0.28 | 0.18 | 0.52 | 0.07 | 0.29 | 0.99 |  |  |  | 
